Measured values published in patent publication EP4289427A1, “DIHYDRO[1,8]NAPHTHYRIDIN-7-ONE AND PYRIDO[3,2-B][1,4]OXAZIN-3-ONE FOR USE IN TREATING CANCER, AND METASTASES IN PARTICULAR” (Anagenesis Biotechnologies, priority 2022, dated 2023).

How the values were obtained:
RD cells [1] = assay: Differentiation of RD cells into myotubes (alpha-actinin staining); type: cell-based, Human; settings: 7 days, Figure 3
Protocol: RD cells are cancer cells of muscle origin that arose from myogenic precursors that fail to complete muscle differentiation. One strategy to stop their progression is to differentiate them into myotubes.
To allow differentiation, RD cells were seeded at a density of 3500 cells/well in a 384-well plate coated with collagen type I, in DMEM (4,5g/L glucose) with L-Gln (cat.no. 41965-039 from Gibco) supplemented with 5% of knockout serum replacement (cat.no. 10828-028 from Gibco), 1% PenStrep (Gibco), 1% MEM NEAA (Gibco) and 0.1 mM 2-mercaptoethanol (Gibco) (hereafter "K5 medium"). Compounds to be tested were then added onto the cells and incubated for 7 days at 37°C. On day 7, cells were fixed with 4% paraformaldehyde solution and immunostained for α-actinin (cat.no. EA-53 from Sigma, at 1/30000).

4T1 cells [2] = assay: Cytotoxicity assay (CellTiter-Glo 2.0) on 4T1 cells; type: cell-based, Mouse; settings: incubation 2 days; for IC50: Mus musculus, 48 h
In short: (§1)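 Seed cells day 0 in respective growth medium; add compounds; incubate for line-specific time; add CellTiter-Glo 2.0, shake, 10 min RT dark; read luminescence; calculate viability and relative IC50.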

RD cells [3] = assay: Cytotoxicity assay (CellTiter-Glo 2.0) on RD cells; type: cell-based, Human; settings: for IC50: Homo sapiens
In short: as §1

MDA-MB-231 cells [4] = assay: Cytotoxicity assay (CellTiter-Glo 2.0) on MDA-MB-231 cells; type: cell-based, Human; settings: incubation 3 days; for IC50: Homo sapiens, 72 h
In short: as §1

EoL-1 cells = assay: Cytotoxicity assay (CellTiter-Glo 2.0) on EoL-1 cells; type: cell-based, Human; settings: incubation 1 day; for IC50: Homo sapiens, EOL1, 24 h
In short: as §1

HUVECs = assay: Tube formation assay (anti-angiogenic activity); type: cell-based, human; settings: incubation 16 to 18 hours; for IC50: Homo sapiens, HUVEC
In short: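 HUVECs plated at 5000 cells/well on reduced growth factor basement membrane matrix, then exposed to compounds for 16 to 18 hours at 37°C. Cells stained with calcein-AM; tube networks imaged by confocal fluorescence microscopy and quantified.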

4T1 cells [5] = assay: Epithelial-mesenchymal transition marker expression by qRT-PCR; type: cell-based, Mouse; design: key: ↗: increased expression; ↘: decreased expression; =: unchanged expression levels; settings: 24 hours, expression normalized against RPL13
Source text: The epithelial-mesenchymal transition (hereafter "EMT") is a process by which epithelial cells lose their cell polarity and cell-cell adhesion while gaining migratory and invasive properties to become mesenchymal stem cells. EMT is commonly measured by quantifying both epithelial and mesenchymal marker's expression by quantitative reverse-transcription polymerase chain reaction (hereafter "qRT-PCR"). EMT inhibition is observed when epithelial markers are stable or increased while mesenchymal markers are decreased.
4T1 cells were treated with compounds to be tested or DMSO for 24 hours. 4T1 cells were then harvested directly in NucleoZol lysis buffer (cat. no. 740404.200 from Macherey-Nagel), according to the manufacturer's instructions. Total RNA was extracted using the NucleoSpin RNA set for NucleoZol (cat. no. 740406.50 from Macherey-Nagel). The quantity and purity of RNA was determined using a Quickdrop (Molecular Devices). RT-PCR was performed on 500 ng total RNA using iScript gDNA clear cDNA synthesis Kit (cat.no. 1725035 from Biorad). The qPCR was run on a QuantStudio 5 real time thermocycler (Applied Biosystems), with PowerUp SYBR Green Master Mix (cat.no. A25742 from Fisher Scientific) and the primers listed in Table 16.
Expression data of EMT markers have been normalized against expression data of the housekeeping gene RPL13.

MDA-MB-231 cells [6] = assay: Scratch (wound healing) assay, cell migration; type: cell-based, Human; settings: 24 hours, Figure 1
Protocol: Cell migration is involved in several pathological cancer processes such as tumor invasion, neoangiogenesis and metastasis. Scratch (or wound healing) assay is a method to study two-dimensional cell migration in vitro. It is based on the observation that cells growing in a monolayer migrate to reestablish cell contacts after a mechanical scratch wound.
The MDA-MB-231 cells were seeded into a 24-well plate and grown to confluent density. A scrape was made in each well using a pipette tip. Then, the cells monolayers were incubated for 2 hours with 5 µg/ml mitomycin C to stop cell proliferation. The cells were treated with the compounds to be tested for 24 hours. The cells were stained using CellMask Green actin tracking stain (cat.no. A57246 from Fisher Scientific) at time zero and at endpoint. Pictures were acquired using a fluorescence microscope (IXM from Molecular Device). The scratch area was measured with the ImageJ software. The recovery of the scratch area was calculated as a percentage of the scratch area at time zero.

SMILES | differentiation into myotubes (RD cells [1]) | IC50 (4T1 cells [2]) [nM] | Cytotoxicity (4T1 cells [2]) | Cytotoxicity (RD cells [3]; 2 day-treatment) | Cytotoxicity (RD cells [3]; 4 day-treatment) | IC50 (RD cells [3]; 48 h, 2 day-treatment) [nM] | IC50 (RD cells [3]; 96 h, 4 day-treatment) [nM] | IC50 (MDA-MB-231 cells [4]) [nM] | Cytotoxicity (MDA-MB-231 cells [4]) | IC50 (EoL-1 cells) [nM] | Cytotoxicity (EoL-1 cells) | IC50 (HUVECs) [nM] | Angiogenesis inhibition (HUVECs) | Epithelial markers E-cadherin (4T1 cells [5]) | Epithelial markers EpCAM (4T1 cells [5]) | Mesenchymal markers Fibronectin (4T1 cells [5]) | Mesenchymal markers Vimentin (4T1 cells [5]) | migration in the scratch assay (MDA-MB-231 cells [6])
CSc1cc(Oc2ccnc3c2CCC(=O)N3)ccc1NC(=O)Nc1cc(C(C)(C)C)nn1-c1cccc(F)c1 [Compound 013, 1-[5-tert-butyl-2-(3-fluorophenyl)pyrazol-3-yl]-3-[2-methylsulfanyl-4-[(7-oxo-6,8-dihydro-5H-1,8-naphthyridin-4-yl)oxy]phenyl]urea] | dose-dependent differentiation into myotubes | < 1000 | +++ (cytotoxicity ≥ 85%) | ++ (50% ≤ cytotoxicity < 85%) | ++ (50% ≤ cytotoxicity < 85%) | 1000 to 5000 | 5000 to 10000 | 1000 to 5000 | ++ (50% ≤ cytotoxicity < 85%) | 1 to 10 | +++ (cytotoxicity ≥ 85%) | < 100 | +++ (angiogenesis inhibition ≥ 80%) | – | – | – | – | –
CSc1cc(Oc2ccnc3c2OCC(=O)N3)ccc1NC(=O)Nc1cc(C(C)(C)C)on1 [Compound 021, 1-(5-tert-butylisoxazol-3-yl)-3-[2-methylsulfanyl-4-[(3-oxo-4H-pyrido[3,2-b][1,4]oxazin-8-yl)oxy]phenyl]urea] | dose-dependent differentiation into myotubes | 1000 to 5000 | ++ (50% ≤ cytotoxicity < 85%) | ++ (50% ≤ cytotoxicity < 85%) | ++ (50% ≤ cytotoxicity < 85%) | 1000 to 5000 | 1000 to 5000 | 1000 to 5000 | ++ (50% ≤ cytotoxicity < 85%) | < 1 | +++ (cytotoxicity ≥ 85%) | 100 to 500 | +++ (angiogenesis inhibition ≥ 80%) | – | – | – | – | –
CSc1cc(Oc2ccnc3c2CCC(=O)N3)ccc1NC(=O)Nc1cc(C(C)(C)C)nn1-c1cncc(F)c1 [Compound 027, 1-[5-tert-butyl-2-(5-fluoro-3-pyridyl)pyrazol-3-yl]-3-[2-methylsulfanyl-4-[(7-oxo-6,8-dihydro-5H-1,8-naphthyridin-4-yl)oxy]phenyl]urea] | – | < 1000 | +++ (cytotoxicity ≥ 85%) | ++ (50% ≤ cytotoxicity < 85%) | ++ (50% ≤ cytotoxicity < 85%) | 1000 to 5000 | 1000 to 5000 | < 1000 | ++ (50% ≤ cytotoxicity < 85%) | 1 to 10 | +++ (cytotoxicity ≥ 85%) | < 100 | +++ (angiogenesis inhibition ≥ 80%) | ↗ | = | ↘ | ↘ | –
Cc1ccc(-n2nc(C(C)(C)C)cc2NC(=O)Nc2ccc(Oc3ccnc4c3OCC(=O)N4)cc2C(F)(F)F)cn1 [Compound 040, 1-[5-tert-butyl-2-(6-methyl-3-pyridyl)pyrazol-3-yl]-3-[4-[(3-oxo-4H-pyrido[3,2-b][1,4]oxazin-8-yl)oxy]-2-(trifluoromethyl)phenyl]urea] | – | < 1000 | +++ (cytotoxicity ≥ 85%) | ++ (50% ≤ cytotoxicity < 85%) | ++ (50% ≤ cytotoxicity < 85%) | 5000 to 10000 | 5000 to 10000 | 1000 to 5000 | ++ (50% ≤ cytotoxicity < 85%) | 10 to 100 | ++ (50% ≤ cytotoxicity < 85%) | 100 to 500 | +++ (angiogenesis inhibition ≥ 80%) | – | – | – | – | inhibition of their migration
